Source: article PMC8602566 (Frontiers in Oncology, 2021)

Legend:
[1] = test system: Human umbilical vein endothelial cells HUVEC; assay: MTT cell viability assay, HUVEC; type: cell-based
Method: (§1) Cell viability was measured using the 3-(4,5-dimethylthiazol-2-yl)-2,5-diphenyltetrazolium bromide (MTT) assay and was expressed as a ratio to the absorbance value at 570 nm of the control cells.

[2] = test system: U87 cells; assay: LDH release; type: cell-based, Human; conditions: increasing concentrations, 48 h
[3] = biological target: HDAC3 (Homo sapiens, UniProt O15379); assay: HDACs inhibition assay, HDAC3
Method: (§2) The inhibition assays for HDACs were carried out according to standard protocols. […] The reaction was stopped by the addition of 45 μl of 100 mM HEPES (pH 7.5) and 0.08% sodium dodecyl sulfate (SDS). The substrate and the product were then separated electrophoretically using a LabChip 3000 system (Caliper Life Sciences, Hopkinton, MA) with blue laser excitation and green fluorescence detection.

[4] = Plasma and brain distribution study; type: in vivo; conditions: mice, single administration, i.v. 5 mg/kg or p.o. 10 mg/kg
Text: Discovery of drugs for the treatment of GBM encounters formidable challenges to their ability to cross the blood–brain barrier (BBB) ([31]). Thus, we further investigated the distribution of DMC-HA to identify whether it has the ability to cross the BBB. […] In addition, stable and durable distribution of DMC-HA in the brain was observed after p.o. administration. Nevertheless, optimization for the balance among potency, selectivity, metabolic stability, and brain permeability in a single molecule was challenging. These preliminary results provide valuable information for further structure optimization of DMC-HA and a guidance for its following in vivo studies.
Figure 5 Concentrations of DMC-HA in plasma and brain over time following a single administration in mice. Left, i.v. 5 mg/kg; right, p.o. 10 mg/kg.

[5] = test system: acetylated histone H3 in U87 cells; assay: Western blot analysis for H3-histone acetylation; type: cell-based, Human
Method: U87 cells (5 × 10^5 cells/ml) in six-well plates were incubated with DMC-HA and lysed in radioimmunoprecipitation assay (RIPA) buffer containing protease and phosphatase inhibitors. Protein contents in the lysates were determined by Bradford’s assay, and 50 μg was separated by SDS polyacrylamide gel electrophoresis (SDS-PAGE) electrophoresis. Proteins were transferred to membranes and probed with human anti-acetylated H3 and anti-β actin antibodies as a loading control. Membranes were then labeled with the appropriate horseradish peroxidase (HRP)-conjugated immunoglobulin G (IgG), and protein bands were visualized using enhanced chemiluminescence. (Bio-Rad, Hercules, CA, USA).
Next, DMC-HA-induced acetylation of histone H3 in living cells was analyzed using Western blot method.

[6] = test system: Human colon carcinoma cell line SW-620; assay: MTT cell viability assay, SW-620; type: cell-based; conditions: SW-620, MTT, 72 h, read-out: IC50 antiproliferative activity SW-620
Method: as §1

[7] = biological target: HDAC4 (Homo sapiens, UniProt P56524); assay: HDACs inhibition assay, HDAC4
Method: as §2

[8] = Hepatic microsome stability assay, mice; type: in vitro ADME; conditions: mouse liver microsomes, NADPH, 37°C, pH 7.4
Method: Metabolic stability was assessed in the presence of human, mouse, and rat liver microsomes (XenoTech, Lenexa, KS, USA). All liquid dispenses and transfer steps were performed with the Freedom Evo automated liquid handler (Tecan US). Compound stock solutions were initially prepared in 100% DMSO and subsequently diluted in acetonitrile for the assay. The pH of the reactions was kept at 7.4 with potassium phosphate buffer. The reaction wells were prepared by adding microsomes to a well and allowed to warm to 37°C. Then, compound was added to each well. The reactions were […] by adding cofactor reduced nicotinamide adenine dinucleotide phosphate (NADPH) to the reaction well containing microsomes and compounds. Negative controls received buffer only. Immediately after reactions started, 0-min aliquots were promptly collected and mixed in a separate well with ice cold acetonitrile to quench the reactions. The remainder of the reaction volume was incubated at 37°C with shaking. An additional aliquot was collected at 60 min after the start of the reaction and promptly quenched with ice cold acetonitrile. Samples were vortexed and centrifuged at 3,500 rpm for 10 min. The amount of compound in the supernatant was determined by liquid chromatography–tandem mass spectrometry (LC/MS/MS) (Thermo Fischer Scientific, San Jose, CA, USA), and the percent of parent compound remaining after 60 min was calculated. Results are the mean of each reaction triplicate, normalized to the internal standard, and expressed as the percent of compound remaining after the incubation time.
Structures that are active in vitro may not be potent in vivo due to their susceptibility to metabolism in the body. We then thoroughly examined the liver microsomal metabolic stability of DMC-HA across three different species (Table 3). […] In addition, the half-life of DMC-HA in human microsome is generally two to three times longer than those in mice and rats. Collectively, the in vitro liver microsomal stability of DMC-HA is favorable, guaranteeing its further in vivo studies.

[9] = biological target: HDAC5 (Homo sapiens, UniProt Q9UQL6); assay: HDACs inhibition assay, HDAC5
Method: as §2

[10] = biological target: SIRT1 (Homo sapiens, UniProt Q96EB6); assay: HDACs inhibition assay, SIRT1
Method: as §2

[11] = test system: Human liver cancer cell line HepG2; assay: MTT cell viability assay, HepG2; type: cell-based; conditions: HepG2, MTT, 72 h, read-out: IC50 antiproliferative activity HepG2
Method: as §1

[12] = test system: U87 cells; assay: Cell cycle analysis by flow cytometry; type: cell-based, Human; conditions: 2.5 μM, 36 h (control 4.6%)
Method: […] Cells were detached, fixed in 70% ethanol in PBS (−20°C) overnight and resuspended in PBS supplemented with 100 µg/ml RNase and 50 µg/ml PI for 30 min. Cell cycle analysis was performed on a flow cytometry (FACSCalibur BD, BD Biosciences, San Jose, CA, USA).
Inhibition of HDACs results in anticancer effect through various mechanisms, like cell cycle arrest, reduced proliferation, and induction of apoptosis ([30]). Thus, the cell cycle profile of the human GBM cell line U87 treated with DMC-HA was analyzed by using flow cytometry. […] Although in control cells, only 4.6% of cells were in G2/M phase, 14.5% of cells in G2/M phase were found after treatment with 2.5 μM DMC-HA.

[13] = test system: Human lung cancer cell line A549; assay: MTT cell viability assay, A549; type: cell-based; conditions: A549, MTT, 72 h, read-out: IC50 antiproliferative activity A549
Method: as §1

Sequence of HDAC3 (O15379 whole entry): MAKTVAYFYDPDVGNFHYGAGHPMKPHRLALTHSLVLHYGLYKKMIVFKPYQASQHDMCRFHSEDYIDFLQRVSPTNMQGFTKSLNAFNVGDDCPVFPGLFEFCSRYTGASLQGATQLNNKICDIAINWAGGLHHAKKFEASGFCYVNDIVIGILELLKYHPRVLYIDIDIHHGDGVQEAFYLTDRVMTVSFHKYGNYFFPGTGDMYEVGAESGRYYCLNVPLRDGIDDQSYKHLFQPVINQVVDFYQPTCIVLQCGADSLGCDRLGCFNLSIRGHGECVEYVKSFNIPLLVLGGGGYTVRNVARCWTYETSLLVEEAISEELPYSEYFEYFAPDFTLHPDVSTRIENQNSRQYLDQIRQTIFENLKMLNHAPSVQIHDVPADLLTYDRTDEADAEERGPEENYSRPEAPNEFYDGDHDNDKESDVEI
Sequence of HDAC3 (Q9Y618 395-489 partner limits assumed): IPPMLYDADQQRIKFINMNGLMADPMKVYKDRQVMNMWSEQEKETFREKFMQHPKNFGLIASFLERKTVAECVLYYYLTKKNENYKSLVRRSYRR
Sequence of HDAC4 (P56524 whole entry): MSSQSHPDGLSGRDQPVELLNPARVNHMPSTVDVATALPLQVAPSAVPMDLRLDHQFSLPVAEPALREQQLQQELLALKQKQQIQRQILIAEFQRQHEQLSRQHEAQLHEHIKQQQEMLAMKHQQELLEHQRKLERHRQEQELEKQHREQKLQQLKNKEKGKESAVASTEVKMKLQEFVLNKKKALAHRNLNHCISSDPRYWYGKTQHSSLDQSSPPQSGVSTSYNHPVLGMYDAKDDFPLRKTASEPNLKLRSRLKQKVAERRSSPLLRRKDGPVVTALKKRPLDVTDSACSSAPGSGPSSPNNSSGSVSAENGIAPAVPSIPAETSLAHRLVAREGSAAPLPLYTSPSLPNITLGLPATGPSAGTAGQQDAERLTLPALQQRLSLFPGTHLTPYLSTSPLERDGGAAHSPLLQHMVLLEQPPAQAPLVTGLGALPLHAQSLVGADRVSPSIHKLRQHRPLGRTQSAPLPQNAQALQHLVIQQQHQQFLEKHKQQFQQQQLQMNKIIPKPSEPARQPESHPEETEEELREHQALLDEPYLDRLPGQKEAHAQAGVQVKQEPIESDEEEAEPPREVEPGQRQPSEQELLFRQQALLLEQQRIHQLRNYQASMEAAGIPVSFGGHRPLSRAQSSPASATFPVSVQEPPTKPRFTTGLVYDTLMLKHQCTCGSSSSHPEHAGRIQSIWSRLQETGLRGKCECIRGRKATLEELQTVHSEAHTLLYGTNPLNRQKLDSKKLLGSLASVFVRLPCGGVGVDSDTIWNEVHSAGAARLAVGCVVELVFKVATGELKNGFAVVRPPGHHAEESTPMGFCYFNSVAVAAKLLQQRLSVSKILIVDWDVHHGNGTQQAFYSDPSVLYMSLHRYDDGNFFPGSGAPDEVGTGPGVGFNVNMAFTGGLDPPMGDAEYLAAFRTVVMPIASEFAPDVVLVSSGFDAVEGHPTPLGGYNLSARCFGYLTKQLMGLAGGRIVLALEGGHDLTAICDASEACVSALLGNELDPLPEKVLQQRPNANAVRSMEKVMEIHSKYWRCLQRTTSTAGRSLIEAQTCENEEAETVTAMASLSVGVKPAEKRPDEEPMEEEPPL
Sequence of HDAC5 (Q9UQL6 whole entry): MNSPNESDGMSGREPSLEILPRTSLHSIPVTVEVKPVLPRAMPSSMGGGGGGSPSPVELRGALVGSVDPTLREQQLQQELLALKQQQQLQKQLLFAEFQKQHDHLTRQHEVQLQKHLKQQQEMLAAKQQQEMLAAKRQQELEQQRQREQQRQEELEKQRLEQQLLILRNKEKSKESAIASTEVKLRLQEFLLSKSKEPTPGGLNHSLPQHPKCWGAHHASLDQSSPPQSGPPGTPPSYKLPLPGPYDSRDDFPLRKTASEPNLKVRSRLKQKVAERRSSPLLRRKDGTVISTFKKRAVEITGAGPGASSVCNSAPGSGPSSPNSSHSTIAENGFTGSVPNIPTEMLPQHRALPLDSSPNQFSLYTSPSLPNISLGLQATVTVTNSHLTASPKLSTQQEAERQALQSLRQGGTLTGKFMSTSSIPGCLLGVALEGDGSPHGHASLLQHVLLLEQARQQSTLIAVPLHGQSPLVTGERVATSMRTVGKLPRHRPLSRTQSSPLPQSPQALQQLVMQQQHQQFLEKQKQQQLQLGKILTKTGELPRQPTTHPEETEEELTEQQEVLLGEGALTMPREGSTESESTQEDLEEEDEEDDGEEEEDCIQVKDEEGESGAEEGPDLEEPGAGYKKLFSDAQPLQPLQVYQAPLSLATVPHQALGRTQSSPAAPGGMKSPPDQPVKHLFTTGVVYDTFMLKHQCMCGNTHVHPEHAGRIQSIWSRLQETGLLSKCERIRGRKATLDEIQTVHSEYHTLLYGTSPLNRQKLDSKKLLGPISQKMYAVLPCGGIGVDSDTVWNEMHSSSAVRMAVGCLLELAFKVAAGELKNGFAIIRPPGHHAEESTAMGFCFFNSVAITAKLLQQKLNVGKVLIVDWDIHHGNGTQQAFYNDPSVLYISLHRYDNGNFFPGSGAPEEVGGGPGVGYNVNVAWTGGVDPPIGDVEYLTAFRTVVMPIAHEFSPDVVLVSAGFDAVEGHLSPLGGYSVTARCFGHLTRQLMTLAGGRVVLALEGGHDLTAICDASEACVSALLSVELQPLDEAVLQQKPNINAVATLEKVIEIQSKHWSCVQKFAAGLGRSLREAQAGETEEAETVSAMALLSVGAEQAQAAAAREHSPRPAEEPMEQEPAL
Sequence of SIRT1 (Q96EB6 whole entry): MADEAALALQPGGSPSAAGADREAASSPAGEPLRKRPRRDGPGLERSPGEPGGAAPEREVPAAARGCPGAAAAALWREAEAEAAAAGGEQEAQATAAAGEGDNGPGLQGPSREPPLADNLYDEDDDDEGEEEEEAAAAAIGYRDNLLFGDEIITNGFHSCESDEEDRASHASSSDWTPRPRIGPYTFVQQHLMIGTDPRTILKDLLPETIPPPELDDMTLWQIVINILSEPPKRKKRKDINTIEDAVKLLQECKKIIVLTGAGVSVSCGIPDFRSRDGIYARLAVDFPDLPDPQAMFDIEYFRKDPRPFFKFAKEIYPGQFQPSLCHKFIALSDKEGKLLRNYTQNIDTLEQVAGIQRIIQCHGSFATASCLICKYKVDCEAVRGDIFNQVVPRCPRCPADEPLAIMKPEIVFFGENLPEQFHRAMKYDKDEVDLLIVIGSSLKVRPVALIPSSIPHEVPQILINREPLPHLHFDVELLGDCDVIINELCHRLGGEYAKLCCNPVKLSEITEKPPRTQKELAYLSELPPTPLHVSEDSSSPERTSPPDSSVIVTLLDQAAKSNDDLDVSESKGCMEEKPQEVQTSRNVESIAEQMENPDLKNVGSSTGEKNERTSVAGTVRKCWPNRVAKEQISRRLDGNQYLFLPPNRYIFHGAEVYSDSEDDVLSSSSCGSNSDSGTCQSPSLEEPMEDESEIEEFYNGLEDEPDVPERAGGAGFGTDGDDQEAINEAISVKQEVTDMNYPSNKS

COc1cc(/C=C/C(=O)CC(=O)/C=C/c2ccc(/C=C/C(=O)NO)cc2)ccc1O [DMC-HA]
IC50 ([1]; Homo sapiens, HUVEC, MTT, 72 h, normal cells, read-out: IC50 HUVEC): 27.4 ± 3.94 µM
toxicity to human umbilical vein endothelial cells (HUVECs) ([1]; in words): low toxicity
LDH release / cell death [2]: induces cell death in a dose-dependent manner
IC50 [3]: 1.67 µM
ability to cross the BBB [4]: can indeed penetrate the BBB
Kp ([4]; mouse, brain and plasma, other: intravenous and oral (i.v. and p.o. arms), over time, read-out: brain-to-plasma ratios): 0.08 to 0.23
acetylation of histone H3, time dependence ([5]; 5 μM, different times): increased in a time-dependent manner
acetylation of histone H3, dose dependence ([5]; various concentrations, 24 h): dose dependently increased the acetylation of histone H3
IC50 [6]: 3.22 ± 0.3 µM
IC50 [7]: > 10 µM
Mice Liver Microsomal Stability T1/2 [8]: 32.7 min
microsomal CLint [8]: 43.2 µL/min/mg
IC50 [9]: > 10 µM
IC50 [10]: > 10 µM
IC50 [11]: 4.28 ± 0.52 µM
cells in G2/M phase [12]: 14.5%
IC50 [13]: 5.33 ± 0.93 µM
